Measurements reported in patent US6395893B1, “Crystallization of lactitol, crystalline lactitol product and use thereof” (Xyrofin Oy, priority 2000, dated 2002).
Where two headings read alike, the source gives them in different places. Each block holds one molecule with its values, some of them ahead of it.

Columns and labels:
Assay type in all cases: physicochemical
[1] = Tablet friability (Key Instruments friability tester); conditions: for Friability (10 tabs): tablet, percentage weight loss, dropped 100 times
Procedure: (§1) The material under evaluation was mixed in a laboratory scale Turbula mixer for 2 minutes with 0.5% magnesium stearate as lubricant. The mixed sample was then tabletted on a Manesty 2C single punch press using a 15 mm diameter flat-faced bevelled edge punch. The compression force was adjusted by altering the drop of the top punch. The compression force is indicated by an arbitrary figure. The higher the number, the greater the compression. These figures can only be used as a comparison for each series of compressions. As soon as the material is changed or any of the machine settings are altered the numbers cannot be compared. The adjustment is such that it cannot be exactly reproduced, therefore, these figures should only be seen as a means of differentiating between samples and indicating either increasing or decreasing compression force. Tablet friability was measured using a Key Instruments friability tester. Ten tablets were dropped 100 times and the percentage weight loss recorded. Any tablets that are badly chipped are removed prior to weighing.

[2] = Tablet hardness (Key Instruments hardness tester); conditions: for Maximum hardness: tablets over the range of compression forces; for Hardness / Hardness (in brackets): tablet; for Hardness: 24 hours after production; for Hardness (in brackets): analysis performed during production
Procedure: as §1, with “hardness” for “friability”, “tablet hardness tester which measures the force required to break the tablet across its diameter.” for “friability tester.”, “tested” for “dropped 100 times”, “an average reading” for “the percentage weight loss”, “recorded.” for “recorded. Any tablets that are badly chipped are removed prior to weighing.”

[3] = Particle size analysis of chocolate; conditions: chocolate made with the lactitol
Procedure: (§2) The milk powder, microcrystalline lactitol, Litesse II (modified polydextrose), vanillin and cocoa liquor were mixed in a Stephan mixer with a portion of the cocoa butter. The mixture was passed through a three roll refiner to produce a flake. The flake was mixed again in the Stephan mixer and a farther portion of cocoa butter was added. The mix was re-refined with the pressures increased to produce a flake with an acceptable particle size.
There was an insignificant increase in the particle size of the chocolate made using microcrystalline lactitol (10-12 μm) compared to the one with lactitol monohydrate (9-10 μm).

[4] = Particle size distribution by sieve analysis; conditions: for Coefficient of variation: of particle size
Source text: Particle size distribution: Sieve analysis was used to determine the particle size.

[5] = Viscosity of chocolate on storage (Haake RV20 viscometer); conditions: chocolate made with the lactitol, held at 50° C. for one week
Procedure: as §2
The resulting flakes were stored ready for conching. Prior to conching the flakes were pre-warmed in an oven set to 50° C. The flake was added to a conche with the temperature set to 60° C. On loading the remaining cocoa butter was added to give a final fat content of 35 %. A small amount of the lecithin was added at this stage. The sample was conched for 24 hours. The remaining lecithin was added I hour prior to the removal of the batch from the conche.
For the sake of comparison the procedure was repeated identically with another batch except that the microcrystalline lactitol was replaced by standard crystalline lactitol monohydrate (Lactitol MC, Xyrofin Oy).
The viscosity of the two samples was measured using a Haake RV20 viscometer with an RC20 rheocontroller fitted. […]

Rate of solution = conditions: 100 g in 100 g of water at 20° C., paddle mixer 250 rpm
Procedure: Rate of solution: 100 g of the sample was put in 100 g of water at 20° C. and 40° C. A small paddle mixer, 250 rpm, was used to mix the solution. During the dissolution the refractive index was measured.

Flowability = assay: Flowability
Procedure: (§3) Flowability: A 500 g sample was poured to a 500 ml measuring cylinder. The sample was tapped 10 times, levelled and the amount of the sample was weighed.

[6] = Hygroscopicity (humidity cabinet)
Procedure: Hygroscopicity: 10 g of the sample was weighed to a petri dish. The open dish was put into a humidity cabinet. The change in weight was measured. The humidity cabins at 25° C. and relative humidity 60% and at 40° C. and relative humidity 70% were used.

[7] = Heat of solution (calorimeter); conditions: 40 g in 670 g distilled water at 25° C.
Procedure: Heat of solution: 40 g of the sample was dissolved in 670 g of distilled water at 25° C. The heat of solution was measured with a calorimeter operating in a constant temperature environment.

Bulk density = conditions: tapped 10 times
Procedure: as §3

[8] = Water content (Karl Fischer)
Procedure: The water content of the microcrystalline lactitol product was analyzed by the Karl Fischer method and the melting behaviour was measured by differential scanning calorimetry (DSC).
Moisture was measured using coulometric Karl Fischer titration

[9] = compression 32.5, listed as Microcrystalline Lactitol Sample
[10] = compression 33, listed as Microcrystalline Lactitol Sample
[11] = compression 33.5, listed as Microcrystalline Lactitol Sample
[12] = compression 34, listed as Microcrystalline Lactitol Sample

Maximum hardness ([2]; listed as crystalline lactitol monohydrate, monohydrate): < 70 N
Particle size of the chocolate ([3]; monohydrate): 9-10 μm
Mean particle size ([4]; monohydrate): 0.47 mm
Sieve analysis 0 ([4]; monohydrate): 0.0
Sieve analysis >0.100 mm ([4]; monohydrate): 0.7
Sieve analysis >0.180 mm ([4]; monohydrate): 4.8
Sieve analysis >0.250 mm ([4]; monohydrate): 15.1
Sieve analysis >0.315 mm ([4]; monohydrate): 25.8
Sieve analysis >0.450 mm ([4]; monohydrate): 20.6
Sieve analysis >0.560 mm ([4]; monohydrate): 17.9
Sieve analysis >0.710 mm ([4]; monohydrate): 15.2
Coefficient of variation ([4]; monohydrate): 30
Viscosity change of chocolate on storage ([5]; monohydrate): considerable thickening
Time to dissolve (Rate of solution; listed as the monohydrate, monohydrate): about 5 minutes
Flowability (Flowability; monohydrate): 23 s
Water sorption ([6]; 25° C. and 60% relative humidity, listed as the monohydrate, monohydrate): 0.02%
Water sorption ([6]; 40° C. and 70% relative humidity, listed as the monohydrate, monohydrate): 0.04%
Heat of solution ([7]; monohydrate): 15.6 cal/g
Bulk density (Bulk density; monohydrate): 360 g/500 ml
SMILES: OC[C@@H](O)[C@@H](O[C@@H]1O[C@H](CO)[C@H](O)[C@H](O)[C@H]1O)[C@H](O)[C@@H](O)CO [lactitol monohydrate]
Friability results (in words) ([1]; tablets, all compression forces): all of the tablets totally disintegrating during the test

Friability (10 tabs) ([1]; compression 32.5): 4.7%
Friability (10 tabs) ([1]; compression 33): 1.79%
Friability (10 tabs) ([1]; compression 33.5): 1.08%
Friability (10 tabs) ([1]; compression 34): 0.34%
Hardness ([2]; compression 32.5 (arbitrary figure)): 70 N
Hardness (in brackets) ([2]; compression 32.5): 82 N
Hardness ([2]; compression 33 (arbitrary figure)): 139 N
Hardness (in brackets) ([2]; compression 33): 133 N
Hardness ([2]; compression 33.5 (arbitrary figure)): 193 N
Hardness (in brackets) ([2]; compression 33.5): 213 N
Hardness ([2]; compression 34 (arbitrary figure)): 240 N
Hardness (in brackets) ([2]; compression 34): 307 N
Maximum hardness [2]: 240 N
SMILES: OC[C@@H](O)[C@@H](O[C@@H]1O[C@H](CO)[C@H](O)[C@H](O)[C@H]1O)[C@H](O)[C@@H](O)CO [Granulated Lactitol, lactitol]

Friability (10 tabs) ([1]; compression 32): 1.31%
Friability (10 tabs) [1, 9]: 0.32%
Friability (10 tabs) [1, 10]: 0.22%
Friability (10 tabs) [1, 11]: 0.5%
Friability (10 tabs) [1, 12]: 0.38%
Friability (10 tabs) ([1]; compression 34.5): 0.69%
Hardness ([2]; compression 32 (arbitrary figure)): 90 N
Hardness (in brackets) ([2]; compression 32): 85 N
Hardness ([2]; compression 32.5 (arbitrary figure), listed as Microcrystalline Lactitol Sample): 156 N
Hardness (in brackets) [2, 9]: 137 N
Hardness ([2]; compression 33 (arbitrary figure), listed as Microcrystalline Lactitol Sample): 252 N
Hardness (in brackets) [2, 10]: 257 N
Hardness ([2]; compression 33.5 (arbitrary figure), listed as Microcrystalline Lactitol Sample): 319 N
Hardness (in brackets) [2, 11]: (301) N
Hardness ([2]; compression 34 (arbitrary figure), listed as Microcrystalline Lactitol Sample): 134 N
Hardness (in brackets) [2, 12]: (335) N
Hardness ([2]; compression 34.5 (arbitrary figure)): 330 N
Hardness (in brackets) ([2]; compression 34.5): (344) N
Particle size of the chocolate [3]: 10-12 μm
Mean particle size [4]: 0.29 mm
Sieve analysis 0 [4]: 1.6
Sieve analysis >0.100 mm [4]: 13.0
Sieve analysis >0.180 mm [4]: 21.1
Sieve analysis >0.250 mm [4]: 21.6
Sieve analysis >0.315 mm [4]: 31.5
Sieve analysis >0.450 mm [4]: 8.3
Sieve analysis >0.560 mm [4]: 2.3
Sieve analysis >0.710 mm [4]: 0.6
Coefficient of variation [4]: 39
Viscosity change of chocolate on storage [5]: no significant increase in viscosity
Time to dissolve (Rate of solution): 4 min
Flowability (Flowability): 17 s
Water sorption ([6]; 25° C. and 60% relative humidity): 0.05%
Water sorption ([6]; 40° C. and 70% relative humidity): 0.11%
Heat of solution [7]: 15.4 cal/g
Water content of the product ([8]; Karl Fischer method): 3.5%
Moisture ([8]; coulometric Karl Fischer titration): 5.1%
Bulk density (Bulk density): 325 g/500 ml
SMILES: OC[C@@H](O)[C@@H](O[C@@H]1O[C@H](CO)[C@H](O)[C@H](O)[C@H]1O)[C@H](O)[C@@H](O)CO [microcrystalline lactitol, lactitol]
